Here are results for 4 compounds from patent publication US20090221624A1, “4-AMINOQUINOLINE COMPOUNDS FOR TREATING VIRUS-RELATED CONDITIONS” (priority 2005, published 2009).

Data set [1] is described as follows: in vitro.
The subject of data set [2] is WNV (WN-hRuPac cells). Kind of data set: WNV antiviral activity, WN-hRuPac cells, Renilla luciferase. The conditions noted are these: for EC50 / inhibition at 25 µM: West Nile virus; for EC50: Secondary Data, WNV, read-out: WNV EC50; for inhibition at 25 µM: primary screening, 25 μM final concentration, 24 hours, percent inhibition of viral replication, read-out: WNV Inh; for WNV TI: therapeutic index CC50/EC50, WNV. The format is cell-based, West Nile virus.

Data set [3] concerns SINV (SR19-F-luc cells). Kind of data set: SINV antiviral activity, SR19-F-luc cells, Firefly luciferase. The conditions noted are these: Sindbis virus; for inhibition at 25 µM: primary screening, 25 μM final concentration, 24 hours, percent inhibition of viral replication, read-out: SINV Inh; for EC50: secondary screening, SR19-F-luc cells. In kind it is cell-based.
Data set [4] deals with DNG (D2-hRuPac cells). Kind of data set: DNG antiviral activity, D2-hRuPac cells, Renilla luciferase. In kind it is cell-based, Dengue fever virus. The conditions noted are these: Dengue virus, secondary screening.
The test system of data set [5] is EBOV minigenome. Kind of data set: microbe, parasite or virus in culture. The conditions noted are these: Zaire ebolavirus; for inhibition at 25 µM: 24 h, read-out: EBOV Inh; for EC50: read-out: EBOV EC50. In kind it is cell-based, Ebola virus.
Data set [6] deals with RSV minigenome. Kind of data set: RSV minigenome-dependent β-galactosidase expression assay (RSV β-Gal). The format is cell-based, respiratory syncytial virus. The conditions noted are these: for EC50 / inhibition at 25 µM: human respiratory syncytial virus; for EC50: Secondary Data, RSV, read-out: RSV EC50; for inhibition at 25 µM: primary screening, 25 μM final concentration, 24 hours, percent inhibition of viral replication, read-out: RSV Inh; for RSV TI: therapeutic index CC50/EC50, RSV.

For data set [7], the system named is HCV replicon (Clone A cells, Huh7, subgenomic hepatits C virus RNA). Kind of data set: HCV Neo screening assay (HCV replicon, NPTII ELISA). In kind it is cell-based, hepatitis C virus. The conditions noted are these: for EC50 / inhibition at 25 µM: Hepatitis C virus, Huh-7; for EC50: Secondary Data, HCV; for inhibition at 25 µM: primary screening, 25 μM final concentration, 24 hours, percent inhibition of viral replication, read-out: HCV Inh; for HCV TI: therapeutic index CC50/EC50, HCV. (In general: Replicon systems follow genome replication, usually without infectious particles.)

For data set [8], the system named is YFV (YF-hRuPac cells). Kind of data set: microbe, parasite or virus in culture. The format is cell-based, yellow fever virus. The conditions noted are these: for inhibition at 25 µM / EC50: Yellow fever virus; for inhibition at 25 µM: 24 h, read-out: YFV Inh; for EC50: read-out: YFV EC50.

For the compound `Cc1cc(Nc2ccc(C)c(C)c2)c2cc(Cl)ccc2n1` [Compound 47], the CC50 was determined as 56 µM in data set [1] (DNG CC50); 56 µM in data set [1] (EBOV CC50); 7.84 µM in data set [1] (HCV CC50); 56 µM in data set [1] (RSV CC50); 56 µM in data set [1] (SINV CC50); 56 µM in data set [1] (WNV CC50). The same compound came in with a CC50 in data set [1] (YFV CC50) of 56 µM. The half-maximal effective concentration (EC50) (usually the concentration that produces a half-maximal response) in data set [2] is 8.66 µM; in data set [3] it was 7.23 µM; in data set [4], 39.4 µM; in data set [5] it was 75 µM; in data set [6] it was 3.96 µM; in data set [7], 11 µM. Further, the EC50 in data set [8] was 19.6 µM. Further, the inhibition at 25 µM amounted to 73% in data set [2]; 61.4% in data set [3]; 49.5% in data set [5]; 96.4% in data set [6]; 149% in data set [7]; 77.7% in data set [8]. Moreover, the “WNV TI” value in data set [2] is 6.47. The “RSV TI” value in data set [6] stood at 14.14. Also, the “HCV TI” value in data set [7] turned out to be 0.71. Further, the “YFV TI” value in data set [8] was found to be 2.86.
Take `CC(=O)c1cccc(Nc2cc(C)nc3c(C)cc(C)cc23)c1` [Compound 48]: the CC50 in data set [1] (DNG CC50) turned out to be 25.6 µM; in data set [1] (EBOV CC50), 25.6 µM; in data set [1] (HCV CC50) it was 14.1 µM; in data set [1] (RSV CC50), 25.6 µM; in data set [1] (SINV CC50), 25.6 µM; in data set [1] (WNV CC50), 25.6 µM. Moreover, in data set [1] (YFV CC50), the CC50 was 25.6 µM. In addition, the EC50 amounted to 21.3 µM in data set [2]; 2.47 µM in data set [3]; 10.5 µM in data set [4]; 26.4 µM in data set [5]; 8.32 µM in data set [6]; 10 µM in data set [7]. For the same compound, the EC50 in data set [8] was determined as 15.9 µM. For the same compound, the inhibition at 25 µM in data set [2] came to 58.5%; in data set [3] it was 70.3%; in data set [5] it was 29.4%; in data set [6], 78%; in data set [7], 151%; in data set [8] it was 62.1%. Moreover, in data set [2], the “WNV TI” value turned out to be 1.2. Besides, the “RSV TI” value in data set [6] stood at 3.08. Further, in data set [7], the “HCV TI” value was found to be 1.41. In addition, the “YFV TI” value in data set [8] is given as 1.61.
For the compound `Cc1cc(C)c2nc(C)cc(Nc3ccc(O)cc3)c2c1` [Compound 49], the CC50 in data set [1] (DNG CC50) stood at 39.3 µM; in data set [1] (EBOV CC50), 39.3 µM; in data set [1] (HCV CC50), 16.3 µM; in data set [1] (RSV CC50), 39.3 µM; in data set [1] (SINV CC50) it was 39.3 µM; in data set [1] (WNV CC50), 39.3 µM. This compound also registered a CC50 in data set [1] (YFV CC50) of 39.3 µM. In addition, the EC50 in data set [2] was 5.58 µM; in data set [3], not below 75 µM; in data set [4] it was 13.2 µM; in data set [5], 6.88 µM; in data set [6] it was 4.39 µM; in data set [7] it was 11.1 µM. Moreover, the concentration for a half-maximal effect (EC50) in data set [8] is 11 µM. Besides, the inhibition at 25 µM amounted to 66.4% in data set [2]; 72.5% in data set [3]; 69.9% in data set [5]; 90.2% in data set [6]; 113% in data set [7]; 66.5% in data set [8]. Further, the “WNV TI” value in data set [2] was found to be 7.04. Moreover, the “RSV TI” value in data set [6] came to 8.94. Moreover, the “HCV TI” value in data set [7] amounted to 1.47. In data set [8], the “YFV TI” value is recorded as 3.57.
As for `CCOC(=O)c1ccc2nc(C)cc(Nc3ccc(C)cc3C)c2c1` [Compound 51], the CC50 in data set [1] (DNG CC50) is 56.1 µM; in data set [1] (EBOV CC50) it was 56.1 µM; in data set [1] (HCV CC50), 21.4 µM; in data set [1] (RSV CC50), 56.1 µM; in data set [1] (SINV CC50), 56.1 µM; in data set [1] (WNV CC50), 56.1 µM. Moreover, the CC50 in data set [1] (YFV CC50) came to 56.1 µM. In addition, the 50% effective concentration (EC50) in data set [2] amounted to 16 µM; in data set [3], 13.7 µM; in data set [4] it was 61 µM; in data set [5], 52.6 µM; in data set [6] it was 3.72 µM; in data set [7], 11.3 µM. Also, the EC50 in data set [8] came out at 15.5 µM. Moreover, the inhibition at 25 µM in data set [2] was 49%; in data set [3], 51.9%; in data set [5], 33.7%; in data set [6], 75.5%; in data set [7], 55.5%; in data set [8] it was 41.8%. Moreover, in data set [2], the “WNV TI” value was 3.5. Moreover, the “RSV TI” value in data set [6] was 15.07. The “HCV TI” value in data set [7] amounted to 1.89. In data set [8], the “YFV TI” value was found to be 3.62.
